# From US11311540B2, “Increasing expression of interferon regulated genes with combinations of histone deacetylase inhibitors and immunomodulatory drugs” (ACETYLON PHARMACEUTICALS, INC., priority 2016, dated 2022)
# Legend:
# [1] = system: α-tubulin; assay: Acetylation of α-tubulin in H929 cells (immunoblot); format: cell-based
# [2] = system: MM.1s myeloma cells; assay: Apoptosis by flow cytometry (Annexin V / propidium iodide); format: cell-based; settings: 5 and 7 days, Compound A 2 μM, lenalidomide 2 μM, pomalidomide 1 μM
# Protocol: (§1) H929 (FIGS. 7A & 7B) or MM.1s (FIGS. 7C & 7D) myeloma cells were exposed to drug for 5 (FIGS. 7A & 7C) and 7 (FIGS. 7B & 7D) days, and apoptosis was assessed by flow cytometry by measuring Annexin V binding and cellular permeability to propidium iodide. The relative fraction of cells that were live, in early apoptosis, in late apoptosis, or dead was then determined.
# [3] = system: H929 cells; assay: as above; format: cell-based; settings: 5 and 7 days, Compound A 2 μM, lenalidomide 2 μM, pomalidomide 1 μM
# Protocol: Flow cytometry analysis was then used to measure the number of healthy and apoptotic cells under each treatment condition.
# as §1
# [4] = system: CASP1; assay: CASP1 gene expression (microarray probes); format: cell-based, human; settings: Compound A 2, 3, 4 μM, pomalidomide 1 μM; 24 and 48 hours
# Protocol: (§2) The chip comprises a human gene expression array having more than 530,000 probes covering more than 36,000 transcripts and variants, which represent more than 20,000 genes mapped through RefSeq or via UniGene annotation. […] In the table, “A” indicates Compound A, and “Pom” indicates pomalidomide.
# (§3) Finally, both effects were enhanced with time, though dose-dependence was less clear at 48 hours.
# [5] = system: XAF1; assay: XAF1 gene expression (microarray probes); format: cell-based, human; settings: Compound A 2, 3, 4 μM, pomalidomide 1 μM; 24 hour and 48 hour
# Description: as §2
# (§4) Each bar in each group of bars per treatment represents individual transcript probes for measuring gene expression level. […] Finally, there also appeared to be independent time components for each transcript.
# [6] = system: myc target genes; assay: Gene Set Enrichment Analysis (GSEA) of microarray data; format: cell-based, human; settings: single agent vs. DMSO at 48 hours (pomalidomide 1 μM; Compound A 4 μM)
# Protocol: (§5) The data acquired from Example 7 was analyzed using two approaches: (1) Gene Set Enrichment Analysis (GSEA), and in the (2) Library of Integrated Network-based Cellular Signatures (LINCS) database.
# (§6) The goal of the GSEA was to identify gene sets that are enriched in combination treatment over single agent treatment. […] Relevant gene sets were those that were enriched in both queries in the same direction (increased or decreased). For this analysis, the “hallmark gene sets” was chosen as the database, which comprises coherently expressed signatures derived by aggregating many molecular signatures database (MSigDB) gene sets to represent well-defined biological states or processes.
# [7] = system: interferon regulated genes; assay: as above; format: cell-based, human; settings: single agent vs. DMSO at 48 hours (pomalidomide 1 μM; Compound A 4 μM)
# Protocol: as §5, §6
# [8] = system: CCL4; assay: CCL4 gene expression (microarray probes); format: cell-based, human; settings: Compound A 2, 3, 4 μM, pomalidomide 1 μM; 24 hour and 48 hour
# Description: as §2, §4
# [9] = system: BIRC5; assay: BIRC5 (survivin) gene expression (microarray probes); format: cell-based, human; settings: Compound A 2, 3, 4 μM, pomalidomide 1 μM; 24 and 48 hours
# Protocol: as §2, §3
# [10] = Phase I trials; cited from earlier work
# [11] = system: preclinical models of MM; settings: in vitro and in vivo; cited from earlier work
# [12] = system: H929 myeloma cells; assay: Cell cycle distribution by flow cytometry (propidium iodide); format: cell-based; settings: 3 and 5 days, Compound A 2 μM, lenalidomide 2 μM, pomalidomide 1 μM
# Protocol: (§7) H929 (FIGS. 6A & 6B) or MM.1s (FIGS. 6C & 6D) myeloma cells were exposed to drug for 3 (FIGS. 6A & 6C) and 5 (FIGS. 6B & 6D) days and cell cycle distribution was assessed by flow cytometry via incorporation of propidium iodide. The relative fraction of cells in each stage of the cell cycle (G0/G1, S, and G2/M) as well as the fraction of dead cells (Sub G1) was then estimated.
# [13] = system: MM.1s myeloma cells; assay: as above; format: cell-based; settings: 3 and 5 days, Compound A 2 μM, lenalidomide 2 μM, pomalidomide 1 μM
# Protocol: as §7
# [14] = Body weight and tolerability in CB17-SCID mice; format: in vivo
# Protocol: Mice carrying H929 tumor xenografts were treated with DMSO, Compound B (50 mg/kg IP QD), pomalidomide (1 mg/kg IP QD), or the combination of Compound B (50 mg/kg IP QD) and pomalidomide (1 mg/kg IP QD) daily for up to 42 days.
# [15] = biological target: T1, HDAC6 (Homo sapiens, UniProt Q9UBN7); assay: HDAC6 selectivity over other HDACs; format: biochemical
# T1 sequence (Q9UBN7 1-1215): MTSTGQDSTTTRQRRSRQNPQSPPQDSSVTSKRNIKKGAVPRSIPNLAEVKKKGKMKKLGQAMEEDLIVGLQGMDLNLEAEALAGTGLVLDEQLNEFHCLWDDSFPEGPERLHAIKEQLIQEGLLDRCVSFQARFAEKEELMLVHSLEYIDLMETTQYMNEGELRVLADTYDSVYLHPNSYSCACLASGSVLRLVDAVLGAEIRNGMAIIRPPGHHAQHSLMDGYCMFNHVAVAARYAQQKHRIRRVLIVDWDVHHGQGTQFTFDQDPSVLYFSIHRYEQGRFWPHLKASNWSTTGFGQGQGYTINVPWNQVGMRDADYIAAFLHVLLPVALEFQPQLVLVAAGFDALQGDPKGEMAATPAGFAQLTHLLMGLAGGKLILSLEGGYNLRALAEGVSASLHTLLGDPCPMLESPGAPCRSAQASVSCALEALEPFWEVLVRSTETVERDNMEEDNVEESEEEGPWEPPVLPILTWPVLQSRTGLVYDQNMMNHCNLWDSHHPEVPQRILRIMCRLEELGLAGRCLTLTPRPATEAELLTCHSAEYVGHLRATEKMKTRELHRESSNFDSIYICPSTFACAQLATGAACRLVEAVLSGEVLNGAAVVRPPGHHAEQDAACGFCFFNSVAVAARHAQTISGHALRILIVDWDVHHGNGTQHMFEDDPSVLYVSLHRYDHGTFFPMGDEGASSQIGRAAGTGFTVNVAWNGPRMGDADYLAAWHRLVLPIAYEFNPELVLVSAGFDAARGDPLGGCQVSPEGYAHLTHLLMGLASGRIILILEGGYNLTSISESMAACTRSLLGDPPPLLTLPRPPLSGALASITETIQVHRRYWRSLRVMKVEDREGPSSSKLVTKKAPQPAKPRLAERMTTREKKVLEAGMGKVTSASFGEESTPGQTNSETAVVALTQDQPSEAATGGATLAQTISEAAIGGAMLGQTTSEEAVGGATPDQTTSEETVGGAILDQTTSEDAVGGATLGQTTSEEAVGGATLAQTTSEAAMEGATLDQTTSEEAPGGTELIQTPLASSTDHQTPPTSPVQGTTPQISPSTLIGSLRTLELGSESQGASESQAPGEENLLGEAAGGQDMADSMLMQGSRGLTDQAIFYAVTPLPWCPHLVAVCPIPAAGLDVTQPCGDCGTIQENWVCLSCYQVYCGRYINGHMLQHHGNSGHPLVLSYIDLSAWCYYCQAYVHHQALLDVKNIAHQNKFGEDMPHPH
# Description: The synthesis of the compounds of Formula I is provided in PCT/US2011/021982, which is incorporated herein by reference in its entirety. The synthesis of compounds of Formula II is provided in PCT/US2011/060791, which is incorporated herein by reference in its entirety. The synthesis of the compounds of Formula III is provided in U.S. Pat. Nos. 5,635,517; 6,281,230; 6,335,349; and 6,476,052; and in International Patent Application No. PCT/US97/013375, each of which is incorporated herein by reference in its entirety.
# [16] = system: H929; assay: Expression profiling with Affymetrix […] microarrays, number of differentially regulated genes; format: cell-based, human; settings: pomalidomide 1 μM
# Description: as §2
Structure (SMILES),CASP1 expression [4],XAF1 expression [5],"Normalized Enrichment Score (NES), myc targets [6]","Normalized Enrichment Score (NES), interferon regulated genes [7]",CCL4 expression [8],BIRC5 expression [9],"tolerability, body weight [14]",further results
"O=C(CCCCCCNC(=O)c1cnc(N(c2ccccc2)c2ccccc2)nc1)NO [Compound A, 2-(diphenylamino)-N-(7-(hydroxyamino)-7-oxoheptyl)pyrimidine-5-carboxamide]",consistent dose-dependent effect,consistent dose-dependent induction,−2.23,2.72,consistent dose-dependent induction,consistent dose-dependent effect,–,inhibition of HDAC6: acetylation of α-tubulin [1]: hyperacetylation of α-tubulin; apoptosis [2]: small increase in apoptosis; apoptosis [3]: small increase in apoptosis; safety and tolerability profile [10]: improved safety and tolerability profile; synergy with bortezomib [11]: synergizes in vitro and in vivo with bortezomib; cell cycle distribution [12]: small reduction of cells undergoing division in S phase; cell cycle distribution [13]: small reduction of cells undergoing division in S phase
"O=C(CCCCCCNC(=O)c1cnc(N(c2ccccc2)c2ccccc2Cl)nc1)NO [Compound B, 2-((2-chlorophenyl)(phenyl)amino)-N-(7-(hydroxyamino)-7-oxoheptyl)pyrimidine-5-carboxamide]",–,–,–,–,–,–,very well tolerated with no weight loss and no evidence of overt toxicity,–
"O=C(NO)c1cnc(NC2(c3cccc(F)c3)CCCCC2)nc1 [Compound C, 2-((1-(3-fluorophenyl)cyclohexyl)amino)-N-hydroxypyrimidine-5-carboxamide]",–,–,–,–,–,–,–,selective for HDAC6 over class I HDACs [15]: more than 300 fold
"Nc1cccc2c1C(=O)N(C1CCC(=O)NC1=O)C2=O (stereo not shown) [pomalidomide, reference compound]",relatively small change,small induction,−1.97,2.87,small induction,relatively small change,very well tolerated with no weight loss and no evidence of overt toxicity,number of genes with fold expression changes greater than 2 relative to vehicle: Down ([16]; 24 h): 531; number of genes with fold expression changes greater than 2 relative to vehicle: Total ([16]; 24 h): 979; number of genes with fold expression changes greater than 2 relative to vehicle: Up ([16]; 24 h): 448; number of genes with fold expression changes greater than 2 relative to vehicle: Down ([16]; 48 h): 865; number of genes with fold expression changes greater than 2 relative to vehicle: Total ([16]; 48 h): 1905; number of genes with fold expression changes greater than 2 relative to vehicle: Up ([16]; 48 h): 1040
